According to patent US20240374692A1, “A NOVEL ACYLATED INSULIN ANALOG” (SUNSHINE LAKE PHARMA CO., LTD., priority 2021, published 2024):
Read-outs that look alike come from different tables or passages of the source.

How the values were obtained:
[1] = dog, in vivo, iv, 10 nmol/kg
Procedure: Two beagle dogs, one in each group, a double-cycle crossover design was used, with a washout period of 1 week, and a single dose of 10 nmol/kg of Icodec or Insulin-a10 was administered to the lateral small saphenous vein of the hind limb in each cycle, the blood was collected and plasma was centrifuged at 0.083, 0.25, 0.5, 1, 2, 6, 8, 24, 30, 48, 72 and 96 h after administration, the concentration of Icodec or Insulin-a10 in the plasma was detected.

[2] = test system: STZ-induced type I diabetes mellitus (T1DM) C57BL/6 mice; assay: Hypoglycemic effect, repeated administration (three times) to STZ-induced T1DM C57BL/6 mice (Example 6); assay type: in vivo; set-up: key to random blood glucose: blood glucose in mmol/L; settings: for random blood glucose: 500 nmol/Kg S.C. three times, Mean ± SEM, n = 7
Procedure: SPF grade C57BL/6 mice were reared in a suitable rearing box in a barrier environment, with a rearing temperature of 20-26° C., a humidity of 40-70%, a time between day and night of 12 h/12 h, and the mice had free access to standard food and autoclaved sterilization water. After the 3-day quarantine period and the 2-day acclimation period, the mice were fasted for 12 h, and the mice were injected intraperitoneally with streptozotocin solution (STZ, 13 mg/mL, in citrate buffer) at 130 mg/kg. 3 Days and 7 days after administration of streptozotocin, random blood glucose and fasting blood glucose were detected, and the random blood glucose value above 25 mmol/L and fasting blood glucose value above 11.1 mmol/L were selected as T1DM model mice for follow-up experiments. On the day before administration, random blood glucose was monitored and mice were weighed. Mice were divided into 6 groups according to random blood glucose and body weight.
Subcutaneous administration (S.C.) was used to administer the corresponding vehicle or drug, once every 4-5 days, for a total of 3 administrations. During the experiment, the animals were allowed to eat and drink water freely. The random blood glucose before the first administration, and 0.25, 0.5, 1, 2, 4, 6, 8, 10, 24, 48, 72, and 96 h after administration were assessed, as well as the random blood glucose before the second and third administration, and 0.5, 1, 2, 6, 24, 48, 72, 96 and 120 h after administration.
(§1) All raw data were entered into Excel files and expressed as Mean±SEM. Statistical analysis of data was performed using Graphpad Prism 7.0 software, one-way or two-way ANOVA comparison method, and P<0.05 was used as the criterion for significant differences.

[3] = rat, in vivo, sc, 10 nmol/kg
[4] = target: T1, insulin receptor B (Homo sapiens, UniProt P06213); assay: Insulin receptor B autophosphorylation in transfected cells (Cisbio Phospho-IR beta Tyr1150/1151 kit); assay type: cell-based; settings: for Relative HI activity: relative to human insulin
T1 construct: expressed in transfected cells
T1 sequence (P06213 28-758 limits assumed): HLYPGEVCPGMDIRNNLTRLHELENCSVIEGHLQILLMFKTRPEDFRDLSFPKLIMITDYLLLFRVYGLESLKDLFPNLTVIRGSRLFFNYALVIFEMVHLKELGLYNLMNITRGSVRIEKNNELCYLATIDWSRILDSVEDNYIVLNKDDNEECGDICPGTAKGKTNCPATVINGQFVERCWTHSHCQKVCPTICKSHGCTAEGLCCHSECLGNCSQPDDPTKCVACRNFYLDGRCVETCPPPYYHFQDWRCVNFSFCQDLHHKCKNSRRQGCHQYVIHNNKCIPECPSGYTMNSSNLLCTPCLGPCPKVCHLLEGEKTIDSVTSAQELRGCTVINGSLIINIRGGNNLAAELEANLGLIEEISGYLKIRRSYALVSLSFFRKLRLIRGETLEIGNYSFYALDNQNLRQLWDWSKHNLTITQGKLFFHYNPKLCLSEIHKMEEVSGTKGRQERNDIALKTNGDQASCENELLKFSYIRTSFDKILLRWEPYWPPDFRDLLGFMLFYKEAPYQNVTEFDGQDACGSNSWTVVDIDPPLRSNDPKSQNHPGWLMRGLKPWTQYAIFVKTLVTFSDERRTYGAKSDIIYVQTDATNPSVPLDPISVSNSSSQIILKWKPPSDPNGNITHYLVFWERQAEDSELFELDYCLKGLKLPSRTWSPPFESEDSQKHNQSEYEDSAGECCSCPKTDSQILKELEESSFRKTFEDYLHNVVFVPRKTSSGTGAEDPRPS
T1 sequence (P06213 763-1382 partner limits assumed): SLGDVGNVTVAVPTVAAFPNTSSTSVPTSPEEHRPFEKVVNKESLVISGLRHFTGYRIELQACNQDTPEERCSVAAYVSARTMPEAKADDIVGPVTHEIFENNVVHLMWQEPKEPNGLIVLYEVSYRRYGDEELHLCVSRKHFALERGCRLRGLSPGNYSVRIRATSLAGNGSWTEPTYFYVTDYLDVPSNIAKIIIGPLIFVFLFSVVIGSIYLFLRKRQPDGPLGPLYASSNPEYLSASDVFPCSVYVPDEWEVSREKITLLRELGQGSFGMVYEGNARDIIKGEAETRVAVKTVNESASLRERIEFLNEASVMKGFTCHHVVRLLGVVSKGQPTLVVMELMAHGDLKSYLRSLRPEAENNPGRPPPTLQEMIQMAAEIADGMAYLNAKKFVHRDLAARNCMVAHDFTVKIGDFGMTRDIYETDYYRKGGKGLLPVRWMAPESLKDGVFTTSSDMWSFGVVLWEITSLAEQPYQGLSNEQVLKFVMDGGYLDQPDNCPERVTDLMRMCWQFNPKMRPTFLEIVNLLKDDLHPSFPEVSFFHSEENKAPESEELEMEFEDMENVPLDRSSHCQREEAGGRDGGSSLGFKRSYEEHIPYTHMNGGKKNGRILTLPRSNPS
Procedure: The phosphorylation level of insulin receptor B was detected by Cisbio's Phospho-IR beta (Tyr1150/1151) kit method to evaluate the biological activity of insulin. The cells were seeded into a 96-well plate overnight, and after the serum in the medium was removed, 40 μl of serum-free medium was added to culture for about 4 h. Then a dilution series of insulin derivatives were prepared with blank solution (0.6% casein, 0.06 mg/mL EDTA, 1×DPBS) and incubated with cells in the 96-well plate for 5 min in a CO2 incubator (37° C., 5% CO2). The liquid in the 96-well plate was poured off, 100 µL of a mixture of lysis buffer (2% Triton X-100, 150 mM NaCl, 50 mM HEPES, pH=7) and inhibitor (Blocking Reagent in the kit) was added to lyse the cells, then the plate was shaken at 350 rpm for 30 min. Relative activity (in percent (%)) was assessed by measuring insulin receptor phosphorylation levels in the supernatant after cell lysis and fitting a curve to the data using nonlinear regression in Graphpad Prism 5 software. Related assays were also used, in which the blank solution also contained 1.5% HSA to simulate physiological conditions. Changes in the phosphorylation levels of the insulin-activated insulin receptors of the invention were detected as an indirect reflection of the albumin binding activity.

[5] = test system: normal C57BL/6 mice; assay: Hypoglycemic effect, single subcutaneous administration to normal C57BL/6 mice; assay type: in vivo; set-up: blood glucose: unit not given here; settings: for blood glucose: Mean ± SEM, n = 6
Procedure: SPF grade C57BL/6 mice were reared in a suitable rearing box in a barrier environment, with a rearing temperature of 20-26° C., a humidity of 40-70%, a time between day and night of 12 h/12 h, and the mice had free access to standard food and autoclaved sterilization water. After a 3-day quarantine period and a 2-day acclimation period, random blood glucose was measured and mice were weighed. Mice were divided into 6 groups according to random blood glucose and body weight.
Single subcutaneous administration (S.C.) was used to administer the corresponding vehicle or drug. The control group was administered the vehicle PBS without fasting during the whole process, and the animals were allowed to eat and drink freely. Random blood glucose values of C57 mice were measured before administration and at 0.25, 0.5, 1, 2, 4, 6, 8, 10, 24, 48, 54, 72 and 96 hours after administration.
as §1

[6] = single S.C., Degludec 200 nmol/Kg, others 1400 nmol/Kg

In the case of “A14E, B16H, B25H, B29K(N(ε)-COOH(CH2)18CO-L-Lys-CO(CH2)2CO—(OEG)2), desB30 human insulin analog [Insulin-a10]”, the AUClast [1] is reported as 28.3 ± 3.5 µg·h/mL, the T1/2 [1] is reported as 46 ± 10.8 h and the “effective glucose control time” value ([2]; 500 nmol/Kg S.C.) is reported as 120 h. The random blood glucose ([2]; Day 0 (1st)) was 32.0 ± 1.7, the random blood glucose ([2]; Day 1) was 19.7 ± 6.6 and the random blood glucose ([2]; Day 4 (2nd)) was 27.6 ± 4.4. For the same substance, the random blood glucose ([2]; Day 5) was 15.2 ± 8.9, the random blood glucose ([2]; Day 9 (3rd)) was 26.6 ± 5.7 and the random blood glucose ([2]; Day 10) was 11.7 ± 9.4. For the same substance, the random blood glucose ([2]; Day 14) was 26.1 ± 6.2, the “time after administration at which blood glucose returned to normal level” value ([2]; 500 nmol/Kg S.C., after the first administration) was 96 h and the “time after administration at which blood glucose returned to normal level” value ([2]; 500 nmol/Kg S.C., after the second and third administrations) was 120 h. The “time after each administration at which blood glucose reached the lowest level” value ([2]; Icodec 250, 500 and 1000 nmol/kg, Insulin-a3 and Insulin-a10 500 nmol/Kg) was 24 h, the “glucose control effect compared with the Icodec-1000 nmol/kg group” value ([2]; test drug 500 nmol/Kg S.C.) was “equivalent” and the AUClast [3] was 9.35 µg·h/mL. It also gave an MRTINF_obs [3] of 29.2 h, a T1/2 [3] of 17.2 h and an EC50 ([4]; 0% HSA) of 0.0855 µM. For the same substance, the “Relative HI activity” value ([4]; 0% HSA) was 1.44%, the EC50 ([4]; 1.5% HSA) was 1.31 µM and the “Relative 0% HSA activity” value ([4]; 1.5% HSA relative to 0% HSA) was 6.52%. The “Relative HI activity” value ([4]; 1.5% HSA) was 0.20%, the blood glucose ([5]; 0 h (before administration), single S.C., Degludec 200 nmol/Kg, others 1400 nmol/Kg) was 9.1 ± 1.5 and the blood glucose ([5]; 0.25 h after single S.C., Degludec 200 nmol/Kg, others 1400 nmol/Kg) was 7.9 ± 1.5. For the same substance, the “blood glucose compared with the control group” value ([5]; 1 h after single S.C. administration) was “decreased significantly”, the blood glucose ([5]; 1 h after single S.C., Degludec 200 nmol/Kg, others 1400 nmol/Kg) was 4.4 ± 0.6 and the blood glucose ([5]; 2 h after single S.C., Degludec 200 nmol/Kg, others 1400 nmol/Kg) was 4.4 ± 1.3. For the same substance, the blood glucose ([5]; 4 h after single S.C., Degludec 200 nmol/Kg, others 1400 nmol/Kg) was 3.7 ± 1.0, the blood glucose ([5]; 6 h after single S.C., Degludec 200 nmol/Kg, others 1400 nmol/Kg) was 3.5 ± 1.1 and the blood glucose ([5]; 8 h after single S.C., Degludec 200 nmol/Kg, others 1400 nmol/Kg) was 3.1 ± 1.0. It also gave a blood glucose ([5]; 10 h after single S.C., Degludec 200 nmol/Kg, others 1400 nmol/Kg) of 2.8 ± 0.7, a blood glucose ([5]; 24 h after single S.C., Degludec 200 nmol/Kg, others 1400 nmol/Kg) of 2.1 ± 0.7 and a blood glucose ([5]; 48 h after single S.C., Degludec 200 nmol/Kg, others 1400 nmol/Kg) of 1.7 ± 0.6. For the same substance, the blood glucose ([5]; 72 h after single S.C., Degludec 200 nmol/Kg, others 1400 nmol/Kg) was 1.8 ± 0.1, the blood glucose ([5]; 96 h after single S.C., Degludec 200 nmol/Kg, others 1400 nmol/Kg) was 4.0 ± 4.0 and the “effect on blood glucose control compared with Icodec” value ([5]; single S.C. 1400 nmol/Kg) was “consistent with the trend of Icodec and can be maintained for a longer time”. For the same substance, the “effective blood glucose control time” value [5, 6] was “more than 96 h”, the “time after administration at which blood glucose reached the lowest level” value [5, 6] was 72 h and the “time after administration at which blood glucose returned to normal” value [5, 6] was > 96 h.
